# In patent US7932270B2 (Cytokinetics, Inc., priority 2006, dated 2011):
# Target: T1, chicken gizzard smooth muscle myosin subfragment-1 chemically crosslinked to cardiac or skeletal actin (Gallus gallus, UniProt P10587)
# T1 construct: chicken gizzard smooth muscle myosin subfragment-1; from tissue; host or cells: chicken gizzard
# Experiment: Smooth muscle myosin ATPase dose response assay (pyruvate kinase/horseradish peroxidase/pyruvate oxidase-coupled, amplex red fluorescence)
# Type: biochemical
# Conditions: read-out: IC50 Arithmetic Mean
# Procedure, shortened: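 Readout is amplex red signal from coupled ATPase of actin-crosslinked gizzard myosin S1 (0.15 mM ATP, 12 mM K-PIPES, pH 7.00). IC50 is the half-maximal activity point of a four-parameter Hill fit.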
# T1 sequence (P02607 2-151): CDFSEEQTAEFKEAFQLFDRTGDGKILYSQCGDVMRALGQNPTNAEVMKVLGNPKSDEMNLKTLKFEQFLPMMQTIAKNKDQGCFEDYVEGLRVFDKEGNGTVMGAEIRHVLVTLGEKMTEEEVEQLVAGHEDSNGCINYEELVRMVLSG
# T1 sequence (P10587 84-789): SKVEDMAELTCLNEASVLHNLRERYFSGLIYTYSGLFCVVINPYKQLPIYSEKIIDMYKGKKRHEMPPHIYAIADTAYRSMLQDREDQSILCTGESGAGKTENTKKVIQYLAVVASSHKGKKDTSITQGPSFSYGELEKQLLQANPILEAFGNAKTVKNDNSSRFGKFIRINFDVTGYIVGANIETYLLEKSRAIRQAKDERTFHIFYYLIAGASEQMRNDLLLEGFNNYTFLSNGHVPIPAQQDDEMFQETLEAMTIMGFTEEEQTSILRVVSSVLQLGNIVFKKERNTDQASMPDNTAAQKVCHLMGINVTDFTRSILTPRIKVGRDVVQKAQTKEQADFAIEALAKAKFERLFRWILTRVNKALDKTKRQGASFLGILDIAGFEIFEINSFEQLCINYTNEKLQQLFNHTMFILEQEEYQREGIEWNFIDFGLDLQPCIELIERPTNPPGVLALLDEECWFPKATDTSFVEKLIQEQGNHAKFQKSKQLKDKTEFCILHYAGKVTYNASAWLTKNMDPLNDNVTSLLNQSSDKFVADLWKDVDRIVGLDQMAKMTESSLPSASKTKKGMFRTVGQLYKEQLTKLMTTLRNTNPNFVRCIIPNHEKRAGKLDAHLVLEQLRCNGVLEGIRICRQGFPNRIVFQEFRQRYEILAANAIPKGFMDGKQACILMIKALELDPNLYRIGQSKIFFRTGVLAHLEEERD
row,Compound,IC50 [nM]
1,Cc1cccc(-c2ccc(C(=O)NCc3cccnc3)c(NCCc3ccccn3)n2)c1 [{6-(3-methylphenyl)-2-[(2-(2-pyridyl)ethyl)amino](3-pyridyl)}-N-(3-pyridylmethyl)carboxamide],6270
2,CC(=O)c1ccc(-c2ccc(C(=O)NCc3cccnc3)c(NCCc3ccccn3)n2)cc1 [{6-(4-acetylphenyl)-2-[(2-(2-pyridyl)ethyl)amino](3-pyridyl)}-N-(3-pyridylmethyl)carboxamide],2130
3,O=C(NCc1cccnc1)c1ccc(-c2ccc(Cl)cc2)nc1NCCc1ccccn1 [{6-(4-chlorophenyl)-2-[(2-(2-pyridyl)ethyl)amino](3-pyridyl)}-N-(3-pyridylmethyl)carboxamide],629
4,N#Cc1ccc(-c2ccc(C(=O)NCc3cccnc3)c(NCCc3ccccn3)n2)cc1 [{6-(4-cyanophenyl)-2-[(2-(2-pyridyl)ethyl)amino](3-pyridyl)}-N-(3-pyridylmethyl)carboxamide],1930
5,CCc1ccc(-c2ccc(C(=O)NCc3cccnc3)c(NCCc3ccccn3)n2)cc1 [{6-(4-ethylphenyl)-2-[(2-(2-pyridyl)ethyl)amino](3-pyridyl)}-N-(3-pyridylmethyl)carboxamide],2790
6,O=C(NCc1cccnc1)c1ccc(-c2ccc(F)cc2)nc1NCCc1ccccn1 [{6-(4-fluorophenyl)-2-[(2-(2-pyridyl)ethyl)amino](3-pyridyl)}-N-(3-pyridylmethyl)carboxamide],1050
7,O=C(NCc1cccnc1)c1ccc(-c2ccc(O)cc2)nc1NCCc1ccccn1 [{6-(4-hydroxyphenyl)-2-[(2-(2-pyridyl)ethyl)amino](3-pyridyl)}-N-(3-pyridylmethyl)carboxamide],586
8,COc1ccc(-c2ccc(C(=O)NCc3cccnc3)c(NCCc3ccccn3)n2)cc1 [{6-(4-methoxyphenyl)-2-[(2-(2-pyridyl)ethyl)amino](3-pyridyl)}-N-(3-pyridylmethyl)carboxamide],1060
9,Cc1csc(-c2ccc(C(=O)NCc3cccnc3)c(NCCc3ccccn3)n2)c1 [{6-(4-methyl(2-thienyl))-2-[(2-(2-pyridyl)ethyl)amino](3-pyridyl)}-N-(3-pyridylmethyl)carboxamide],344
10,Cc1cscc1-c1ccc(C(=O)NCc2cccnc2)c(NCCc2ccccn2)n1 [{6-(4-methyl(3-thienyl))-2-[(2-(2-pyridyl)ethyl)amino](3-pyridyl)}-N-(3-pyridylmethyl)carboxamide],4060
11,Cc1ccc(-c2ccc(C(=O)NCc3cccnc3)c(NCCc3ccccn3)n2)cc1 [{6-(4-methylphenyl)-2-[(2-(2-pyridyl)ethyl)amino](3-pyridyl)}-N-(3-pyridylmethyl)carboxamide],677
12,COCc1ccccc1-c1ccc(C(=O)NCc2cccnc2)c(NCCc2ccccn2)n1 [{6-[2-(methoxymethyl)phenyl]-2-[(2-(2-pyridyl)ethyl)amino](3-pyridyl)}-N-(3-pyridylmethyl)carboxamide],84500
13,CN(C)c1cccc(-c2ccc(C(=O)NCc3cccnc3)c(NCCc3ccccn3)n2)c1 [{6-[3-(dimethylamino)phenyl]-2-[(2-(2-pyridyl)ethyl)amino](3-pyridyl)}-N-(3-pyridylmethyl)carboxamide],12400
14,CN(C)c1ccc(-c2ccc(C(=O)NCc3cccnc3)c(NCCc3ccccn3)n2)cc1 [{6-[4-(dimethylamino)phenyl]-2-[(2-(2-pyridyl)ethyl)amino](3-pyridyl)}-N-(3-pyridylmethyl)carboxamide],809
15,O=C(NCc1cccnc1)c1ccc(-c2ccc(CO)cc2)nc1NCCc1ccccn1 [{6-[4-(hydroxymethyl)phenyl]-2-[(2-(2-pyridyl)ethyl)amino](3-pyridyl)}-N-(3-pyridylmethyl)carboxamide],2430
16,O=C(Nc1ccccn1)c1ccc(-c2ccccc2)nc1NCCc1ccccn1 [{6-phenyl-2-[(2-(2-pyridyl)ethyl)amino](3-pyridyl)}-N-(2-pyridyl)carboxamide],7190
17,O=C(NCc1ccccn1)c1ccc(-c2ccccc2)nc1NCCc1ccccn1 [{6-phenyl-2-[(2-(2-pyridyl)ethyl)amino](3-pyridyl)}-N-(2-pyridylmethyl)carboxamide],463
18,O=C(NCc1cccs1)c1ccc(-c2ccccc2)nc1NCCc1ccccn1 [{6-phenyl-2-[(2-(2-pyridyl)ethyl)amino](3-pyridyl)}-N-(2-thienylmethyl)carboxamide],1720

row,Compound,IC50 [nM]
1,O=C(Nc1cccnc1)c1ccc(-c2ccccc2)nc1NCCc1ccccn1 [{6-phenyl-2-[(2-(2-pyridyl)ethyl)amino](3-pyridyl)}-N-(3-pyridyl)carboxamide],5370
2,O=C(NCc1cccnc1)c1ccc(-c2ccccc2)nc1NCCc1ccccn1 [{6-phenyl-2-[(2-(2-pyridyl)ethyl)amino](3-pyridyl)}-N-(3-pyridylmethyl)carboxamide],512
3,O=C(NCc1ccsc1)c1ccc(-c2ccccc2)nc1NCCc1ccccn1 [{6-phenyl-2-[(2-(2-pyridyl)ethyl)amino](3-pyridyl)}-N-(3-thienylmethyl)carboxamide],683
4,O=C(NCC1CCNCC1)c1ccc(-c2ccccc2)nc1NCCc1ccccn1 [{6-phenyl-2-[(2-(2-pyridyl)ethyl)amino](3-pyridyl)}-N-(4-piperidylmethyl)carboxamide],43700
5,O=C(Nc1ccncc1)c1ccc(-c2ccccc2)nc1NCCc1ccccn1 [{6-phenyl-2-[(2-(2-pyridyl)ethyl)amino](3-pyridyl)}-N-(4-pyridyl)carboxamide],5210
6,O=C(NCc1ccncc1)c1ccc(-c2ccccc2)nc1NCCc1ccccn1 [{6-phenyl-2-[(2-(2-pyridyl)ethyl)amino](3-pyridyl)}-N-(4-pyridylmethyl)carboxamide],1290
7,O=C(NCc1cc[nH]n1)c1ccc(-c2ccccc2)nc1NCCc1ccccn1 [{6-phenyl-2-[(2-(2-pyridyl)ethyl)amino](3-pyridyl)}-N-(pyrazol-3-ylmethyl)carboxamide],711
8,C=CCNC(=O)c1ccc(-c2ccccc2)nc1NCCc1ccccn1 [{6-phenyl-2-[(2-(2-pyridyl)ethyl)amino](3-pyridyl)}-N-prop-2-enylcarboxamide],3120
9,O=C(NCc1cccnc1)c1ccc(-c2ccccc2)nc1NCCc1cccs1 [{6-phenyl-2-[(2-(2-thienyl)ethyl)amino](3-pyridyl)}-N-(3-pyridylmethyl)carboxamide],149
10,O=C(NCc1cccnc1)c1ccc(-c2ccccc2)nc1NCCc1cccnc1 [{6-phenyl-2-[(2-(3-pyridyl)ethyl)amino](3-pyridyl)}-N-(3-pyridylmethyl)carboxamide],2190
11,O=C(NCCc1ccccn1)c1ccc(-c2ccccc2)nc1NCCc1ccccc1 [{6-phenyl-2-[(2-phenylethyl)amino](3-pyridyl)}-N-(2-(2-pyridyl)ethyl)carboxamide],5250
12,O=C(NCCc1cccnc1)c1ccc(-c2ccccc2)nc1NCCc1ccccc1 [{6-phenyl-2-[(2-phenylethyl)amino](3-pyridyl)}-N-(2-(3-pyridyl)ethyl)carboxamide],3090
13,O=C(NCc1cccnc1)c1ccc(-c2ccccc2)nc1NCCc1ccccc1 [{6-phenyl-2-[(2-phenylethyl)amino](3-pyridyl)}-N-(3-pyridylmethyl)carboxamide],151
14,C=CCNC(=O)c1ccc(-c2ccccc2)nc1NCCc1ccccc1 [{6-phenyl-2-[(2-phenylethyl)amino](3-pyridyl)}-N-prop-2-enylcarboxamide],1060
15,O=C(NCc1cccnc1)c1ccc(-c2ccccc2)nc1NCCOc1ccccc1 [{6-phenyl-2-[(2-phenyoxyethyl)amino](3-pyridyl)}-N-(3-pyridylmethyl)carboxamide],20200
16,O=C(NCc1cccnc1)c1ccc(-c2ccccc2)nc1NCCCc1ccccc1 [{6-phenyl-2-[(3-phenylpropyl)amino](3-pyridyl)}-N-(3-pyridylmethyl)carboxamide],5690
17,O=C(NCc1cccnc1)c1ccc(-c2ccccc2)nc1NCc1ccccc1 [{6-phenyl-2-[benzylamino](3-pyridyl)}-N-(3-pyridylmethyl)carboxamide],2790
18,(2-{[2-(2-oxoimidazolidinyl)ethyl]amino}-6-phenyl(3-pyridyl))-N-(3-pyridylmethyl)carboxamide,70600
